Key:
Test in all cases: Radiometric kinase assay (Reaction Biology HotSpot)
Type in all cases: biochemical
JAK3 = biological target: T1, JAK3 (Homo sapiens, UniProt P52333); settings: [ATP] = 10 μM; for remaining activity at 0.2 µM: 200 nM compound, duplicate mean, read-out: Residual Activity @ 200 nM, JAK3; for IC50: radiometric HotSpot, five-dose singlicate
T1 construct: purchased Reaction Biology Corporation
T1 sequence (P52333 1-1124): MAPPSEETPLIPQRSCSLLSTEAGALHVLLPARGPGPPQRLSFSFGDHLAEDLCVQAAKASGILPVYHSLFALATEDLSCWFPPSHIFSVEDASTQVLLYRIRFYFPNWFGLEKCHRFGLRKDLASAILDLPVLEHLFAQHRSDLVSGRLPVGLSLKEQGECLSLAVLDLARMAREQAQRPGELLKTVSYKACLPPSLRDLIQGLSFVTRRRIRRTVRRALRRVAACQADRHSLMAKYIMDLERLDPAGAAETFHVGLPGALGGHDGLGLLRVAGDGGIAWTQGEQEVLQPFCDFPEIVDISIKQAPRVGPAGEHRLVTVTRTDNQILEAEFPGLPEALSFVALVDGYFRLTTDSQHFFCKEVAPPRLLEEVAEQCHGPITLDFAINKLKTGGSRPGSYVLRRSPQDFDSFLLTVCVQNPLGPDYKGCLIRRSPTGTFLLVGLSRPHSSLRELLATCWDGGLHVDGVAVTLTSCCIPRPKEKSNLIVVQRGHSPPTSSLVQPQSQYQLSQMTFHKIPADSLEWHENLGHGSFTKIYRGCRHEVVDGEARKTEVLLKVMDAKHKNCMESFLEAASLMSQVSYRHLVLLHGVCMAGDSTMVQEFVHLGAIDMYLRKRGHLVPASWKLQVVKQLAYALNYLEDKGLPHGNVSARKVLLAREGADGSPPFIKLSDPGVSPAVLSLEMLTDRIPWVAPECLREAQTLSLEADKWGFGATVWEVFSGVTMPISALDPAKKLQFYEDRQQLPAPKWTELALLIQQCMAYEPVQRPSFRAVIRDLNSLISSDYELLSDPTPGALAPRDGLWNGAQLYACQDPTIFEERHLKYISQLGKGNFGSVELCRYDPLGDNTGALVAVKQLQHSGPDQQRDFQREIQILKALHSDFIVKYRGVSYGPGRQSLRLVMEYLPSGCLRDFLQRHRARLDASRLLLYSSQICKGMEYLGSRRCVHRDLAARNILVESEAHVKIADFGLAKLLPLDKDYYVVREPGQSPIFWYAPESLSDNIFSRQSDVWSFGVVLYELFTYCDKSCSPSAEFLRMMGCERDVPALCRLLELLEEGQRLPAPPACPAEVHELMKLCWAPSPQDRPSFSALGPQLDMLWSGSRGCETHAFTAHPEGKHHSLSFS
Method: (§1) If not mentioned differently, in vitro profiling of compounds was performed at Reaction Biology Corporation using the HotSpot™ assay platform.

TEC = biological target: T2, TEC (Homo sapiens, UniProt P42680); settings: [ATP] = 10 μM; for remaining activity at 0.2 µM: 200 nM compound, duplicate mean, read-out: Residual Activity @ 200 nM, TEC
T2 construct: purchased Reaction Biology Corporation
T2 sequence (P42680 1-631): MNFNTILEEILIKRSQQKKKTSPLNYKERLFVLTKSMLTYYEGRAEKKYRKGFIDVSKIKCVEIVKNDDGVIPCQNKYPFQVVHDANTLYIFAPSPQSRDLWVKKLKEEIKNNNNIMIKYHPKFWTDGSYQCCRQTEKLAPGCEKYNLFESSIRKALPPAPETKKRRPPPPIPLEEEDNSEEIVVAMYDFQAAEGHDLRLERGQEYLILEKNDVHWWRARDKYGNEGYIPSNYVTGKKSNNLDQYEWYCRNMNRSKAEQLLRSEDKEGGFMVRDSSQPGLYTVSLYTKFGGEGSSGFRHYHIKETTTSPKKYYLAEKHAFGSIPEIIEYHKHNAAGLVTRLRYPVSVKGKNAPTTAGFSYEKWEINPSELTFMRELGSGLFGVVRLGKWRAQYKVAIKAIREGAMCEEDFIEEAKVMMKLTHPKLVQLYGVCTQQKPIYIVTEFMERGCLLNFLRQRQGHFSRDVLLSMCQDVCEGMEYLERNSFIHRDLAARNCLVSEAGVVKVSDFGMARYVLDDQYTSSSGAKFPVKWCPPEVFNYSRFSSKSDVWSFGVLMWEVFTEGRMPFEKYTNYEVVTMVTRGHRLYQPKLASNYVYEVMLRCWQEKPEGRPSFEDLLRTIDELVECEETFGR
Method: as §1

TXK = biological target: T3, TXK (Homo sapiens, UniProt P42681); settings: for remaining activity at 0.2 µM: read-out: Residual Activity @ 200 nM, TXK; for IC50: five-dose singlicate
T3 construct: purchased Reaction Biology Corporation
T3 sequence (P42681 1-527): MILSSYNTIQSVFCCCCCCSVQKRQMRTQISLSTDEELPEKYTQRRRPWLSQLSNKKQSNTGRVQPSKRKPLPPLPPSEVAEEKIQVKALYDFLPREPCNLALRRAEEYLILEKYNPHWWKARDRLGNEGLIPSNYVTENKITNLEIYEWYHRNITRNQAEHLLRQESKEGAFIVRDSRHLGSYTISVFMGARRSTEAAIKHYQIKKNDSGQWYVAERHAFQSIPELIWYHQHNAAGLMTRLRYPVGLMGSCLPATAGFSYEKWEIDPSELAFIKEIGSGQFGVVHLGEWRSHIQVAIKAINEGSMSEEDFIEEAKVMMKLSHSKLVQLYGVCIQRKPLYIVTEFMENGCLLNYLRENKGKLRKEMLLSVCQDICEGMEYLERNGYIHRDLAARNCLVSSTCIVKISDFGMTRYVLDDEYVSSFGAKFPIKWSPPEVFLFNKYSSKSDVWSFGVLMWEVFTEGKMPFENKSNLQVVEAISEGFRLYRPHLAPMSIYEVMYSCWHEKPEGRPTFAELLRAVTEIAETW
Method: as §1

MKK7 = biological target: T4, MKK7 (Homo sapiens, UniProt O14733); settings: 200 nM compound, duplicate mean, [ATP] = 10 μM; read-out: Residual Activity @ 200 nM, MKK7
T4 construct: purchased Reaction Biology Corporation
T4 sequence (O14733 1-419): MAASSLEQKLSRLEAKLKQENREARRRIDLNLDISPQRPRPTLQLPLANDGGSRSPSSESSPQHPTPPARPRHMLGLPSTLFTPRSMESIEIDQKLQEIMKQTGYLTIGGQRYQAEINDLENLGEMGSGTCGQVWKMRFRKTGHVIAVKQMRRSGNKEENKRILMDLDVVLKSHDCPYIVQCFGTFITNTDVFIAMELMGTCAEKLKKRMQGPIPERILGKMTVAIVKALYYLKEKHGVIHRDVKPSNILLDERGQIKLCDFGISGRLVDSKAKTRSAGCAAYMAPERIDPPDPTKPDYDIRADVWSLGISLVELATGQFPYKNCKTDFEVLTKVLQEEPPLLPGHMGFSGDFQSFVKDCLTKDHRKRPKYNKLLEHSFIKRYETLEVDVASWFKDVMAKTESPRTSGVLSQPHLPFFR
Method: as §1

[1] = 200 nM compound, duplicate mean, [ATP] = 10 μM
[2] = radiometric HotSpot, [ATP] = 10 μM

Row | remaining activity at 0.2 µM (JAK3) [%] | IC50 (JAK3) [nM] | remaining activity at 0.2 µM (TEC) [%] | remaining activity at 0.2 µM (TXK; [1]) [%] | remaining activity at 0.2 µM (MKK7) [%] | IC50 (TXK; [2]) [nM] | remaining activity at 1 µM (TXK; 1 µM compound, radiometric HotSpot, read-out: residual activity at 1 µM, TXK) [%] | Residual Activity @ 200 nM, TXK (TXK; [1]) [%] | IC50 (TEC; radiometric HotSpot, five-dose singlicate) [nM] | Structure (SMILES)
1 | 0.8 | 0.2 | 37.1 | 1.8 | 37.3 | – | – | – | – | C=CC(=O)Nc1cccc(-c2c[nH]c3ncccc23)c1 [Compound 9a, N-(3-(1H-pyrrolo[2,3-b]pyridin-3-yl)phenyl)acrylamide]
2 | 0.5 | < 0.1 | 42.1 | 3.2 | 28.3 | 28 | – | – | – | C=CC(=O)Nc1cccc(-c2c[nH]c3ncc(C(N)=O)cc23)c1 [Compound 10a, 3-(3-acrylamidophenyl)-1H-pyrrolo[2,3-b]pyridine-5-carboxamide]
3 | – | – | – | – | – | > 1000 | 72 | – | – | C=CC(=O)Nc1cccc(-c2c[nH]c3ncc(C(=O)NC4CCCC4)cc23)c1 [Compound 11a, 3-(3-acrylamidophenyl)-N-cyclopentyl-1H-pyrrolo[2,3-b]pyridine-5-carboxamide]
4 | – | – | 99.2 | 89 | – | – | – | 88.8 | – | CCC(=O)Nc1cccc(-c2c[nH]c3ncc(NC(=O)C4CCCC4)cc23)c1 [Compound 12b, N-(3-(3-propionamidophenyl)-1H-pyrrolo[2,3-b]pyridin-5-yl)cyclopentanecarboxamide]
5 | > 100 | > 10000 | 17.2 | 0.3 | > 100 | 10 | – | – | 13 | C=CC(=O)Nc1cccc(-c2c[nH]c3ncc(NC(=O)c4cccs4)cc23)c1 [Compound 12c, N-(3-(3-acrylamidophenyl)-1H-pyrrolo[2,3-b]pyridin-5-yl)thiophene-2-carboxamide]

— PMC7730235, “Discovery of a Novel Class of Covalent Dual Inhibitors Targeting the Protein Kinases BMX and BTK” (International Journal of Molecular Sciences, 2020)
